In patent publication US20240360194A1, “New Peptides as Potent and Selective GIP Receptor Agonists” (Sanofi, priority 2021, published 2024):
Numbered stars: 1 amine (or outer) side, 2 acyl side, 3 side chain; on linkers, the order of the positions; unused ones are H or OH. Square brackets hold non-standard residues; d marks the D form. Side chains are listed from the residue outwards. Peptide text beside a SMILES is read from it. * marks the point of attachment. C18 diacid = O=C(O)CCCCCCCCCCCCCCCCC(=O)*; γGlu = O=C(O)[C@H](CCC(=O)[*:2])N[*:1]; AEEA = NCCOCCOCC(=O)O; Aib = CC(C)(N)C(=O)O

Assay: Pharmacokinetic evaluation in minipigs
Assay type: in vivo
Settings: female, Göttingen, minipig, plasma
Protocol: Compounds were administered in a suitable buffer system, e.g. PBS buffer solution at pH7.4 or DPBS solution at concentrations of 0.05, 0.1, 0.5 or 1 mg/ml depending on dose, species and administration volume.
Female Göttingen minipigs were dosed 0.05 mg/kg intravenously (i.v.) or 0.1 mg/kg subcutaneously (s.c.). Blood samples were collected at 0 h and after 0.083, 0.25, 0.5, 1, 2, 4, 8, 24, 32, 48, 56, 72, 80, and 96 h post i.v. application and at 0 h and after 0.25, 0.5, 1, 2, 4, 8, 24, 32, 48, 56, 72, 80, and 96 h post s.c. application, respectively. Plasma samples were analysed after protein precipitation via liquid chromatography mass spectrometry (LC/MS). PK parameters and half-life were calculated using Phoenix-WinNonlin 8.1 using a non-compartmental model and linear trapezoidal interpolation calculation.
Pharmacokinetic profiles were determined as described in Methods.

CC[C@H](C)[C@H](NC(=O)[C@H](CCC(=O)O)NC(=O)[C@H](CCC(=O)O)NC(=O)[C@H](CCCCNC(=O)COCCOCCNC(=O)COCCOCCNC(=O)CC[C@H](NC(=O)CCCCCCCCCCCCCCCCC(=O)O)C(=O)O)NC(=O)C(C)(C)NC(=O)[C@@H](NC(=O)[C@H](CO)NC(=O)[C@H](CC(C)C)NC(=O)[C@H](CC(=O)O)NC(=O)[C@H](CO)NC(=O)[C@@H](NC(=O)[C@H](Cc1ccccc1)NC(=O)[C@@H](NC(=O)CNC(=O)[C@H](CCC(=O)O)NC(=O)C(C)(C)NC(=O)[C@@H](N)Cc1ccc(O)cc1)[C@@H](C)O)[C@@H](C)CC)[C@@H](C)CC)C(=O)N[C@@H](Cc1c[nH]cn1)C(=O)N[C@@H](CCC(N)=O)C(=O)NC(C)(C)C(=O)N[C@@H](CCC(=O)O)C(=O)N[C@@H](Cc1ccccc1)C(=O)N[C@H](C(=O)N[C@@H](CCC(=O)O)C(=O)N[C@@H](Cc1c[nH]c2ccccc12)C(=O)N[C@@H](CC(C)C)C(=O)N[C@@H](CC(C)C)C(=O)N[C@@H](C)C(=O)N[C@@H](CCC(N)=O)C(=O)NCC(=O)N1CCC[C@H]1C(=O)N[C@@H](CO)C(=O)N[C@@H](CO)C(=O)NCC(=O)N[C@@H](C)C(=O)N1CCC[C@H]1C(=O)N1CCC[C@H]1C(=O)N1CCC[C@H]1C(=O)N[C@@H](CO)C(N)=O)[C@@H](C)CC [SEQ ID NO: 19, H2N-Y-Aib-E-G-T-F-I-S-D-L-S-I-Aib-K[{AEEA}2-gGlu-C18OH]-E-E-I-H-Q-Aib-E-F-I-E-W-L-L-A-Q-G-P-S-S-G-A-P-P-P-S-NH2] (H-Y[Aib]EGTFISDLSI[Aib]K([AEEA-AEEA-γGlu-C18 diacid])EEIHQ[Aib]EFIEWLLAQGPSSGAPPPS-NH2)
AUC(0-t) (iv, 0.05 mg/kg i.v.): 50500 ng·h/mL | Cmax (iv, 0.05 mg/kg i.v.): 1980 ng/mL | clearance (iv, 0.05 mg/kg i.v.): 15.4 mL/day/kg | half-life (iv, 0.05 mg/kg i.v.): 64.1 h | AUC(0-t) (sc, 0.1 mg/kg s.c.): 56800 ng·h/mL | Cmax (sc, 0.1 mg/kg s.c.): 723 ng/mL | bioavailability (sc, 0.1 mg/kg s.c.): 56%
